ChEMBL document CHEMBL4038261, “Synthetic strategy with representation on mechanistic pathway for the therapeutic applications of dihydroquinazolinones” (Eur J Med Chem, 2016)

Tests used:
[1] = tested on: Mycobacterium tuberculosis H37Rv; test: Inhibition of Mycobacterium tuberculosis H37Rv Chorismate mutase at 30 uM relative to control
[2] = Inhibition of Mycobacterium tuberculosis H37Rv Chorismate mutase
Plasmodium berghei = test: Antimalarial activity against liver stage of Plasmodium berghei ANKA harboring luciferase gene infected in human HepG2 cells pretreated for 1 hr followed by parasite infection measured after […] by Bright-Glo luminescence assay; assay type: functional, cell-based

| SMILES | inhibition [1] [%] | further results |
| --- | --- | --- |
| O=C1NC2(CCCCCC2)Nc2ccccc21 | 30 to 35 | – |
| COc1cc(CCNc2c([N+](=O)[O-])cc(C(=O)O)cc2S(N)(=O)=O)cc(OC)c1 | – | IC50 [2]: < 10 µM |
| O=C1NC2(Cc3ccccc3C2)Nc2ccc(I)cc21 | 30 to 35 | – |
| CCN(CC)CCN1C(=O)c2ccccc2NC1c1ccc(Cl)cc1 (centres undefined) | – | EC50 (Plasmodium berghei): 1400 nM |
